{
  "source": "patent US20160058829A1",
  "about": "“ANTI-FIBROTIC PEPTIDES AND THEIR USE IN METHODS FOR TREATING DISEASES AND DISORDERS CHARACTERIZED BY FIBROSIS” (Thrasos Innovation, Inc., priority 2011, published 2016)",
  "key": {"[1]": {"system": "mice with nephrotoxic serum nephritis", "experiment": "Nephrotoxic serum nephritis (NTN) in CD1 mice", "type": "in vivo", "text": "FIG. 59A-FIG. 59M AA-123 Reverses Renal Fibrosis in Mice with Nephrotoxic Serum Nephritis. FIG. 59A-FIG. 59D. Representative Masson's trichrome staining picture of kidney sections from untreated control mice (FIG. 59A); 6 weeks NTN (FIG. 59B); 9 weeks post NTN (FIG. 59C); and 9 weeks NTN with THR-123 administered starting at 6 weeks NTN (FIG. 59D), Original magnification ×200. FIG. 59E-FIG. 59G. Morphometric analysis from control mice (0 weeks) (n=5), mice after 1 (n=6), 3 (n=8), and 6 weeks following induction of NTN (n=6), and mice at 9 weeks NTN with THR-123 administered starting 6 weeks NTN (THR-123 (6-9W) (n=6)), assessing percent of glomerulosclerosis score (FIG. 59E), tubular atrophy index (FIG. 59F), and fibrosis index (FIG. 59G). FIG. 59H. Blood Urea Nitrogen measurement for mice 6 weeks NTN (n=3), 9 weeks NTN (n=5), and 9 weeks NTN with THR-123 administered starting at 6 weeks NTN (n=5) FIG. 59I-FIG. 59L. E-cadherin/FSP1 immunolabeling of kidney from control untreated mice (FIG. 59I), 6 weeks NTN (FIG. 59J), 9 weeks NTN (FIG. 59K), and 9 weeks NTN with THR-123 administered starting at 6 weeks NTN (FIG. 59L). Representative results are shown. FIG. 59M. Percent of E-cadherin/FSP1 double positive tubule was assessed by counting the number of double-labeled tubules, 500 tubules per slide, 5 slides per experimental group. Data are expressed as mean±s.e.m. in the graph.\nNTN is induced in C57BL6 mice by pre-immunizing with a subcutaneous injection of normal sheep IgG (200 μg) in complete Freund's adjuvant (day 1) followed by intravenous injection of nephrotoxic serum injection (50 μl, from day 5 to day 7). Mice were sacrificed at 1, 3, 6, 9 weeks after induction of NTN. Total RNA was isolated from the kidney by Trizol/Invitrogen PureLink RNA Mini Kit for RNA extraction. Ten nanogram of total RNA was used for generating complementary cDNA using the TaqMan One-Step RT-PCR Master Mix (Applied Biosystems, Foster City, Calif.). Quantitative PCR was performed to analyze the gene expression profile of BMP7, BMP receptors Alk2, Alk-3, Alk6 and BMPR II, and to BMP-binding proteins chordin, criml, fibrillinl, follistatin, KCP, USAG1, gremlin and noggin are analyzed (Table: Primer Sequences (below)) using ABIprism 7000 (Applied Biosystems).\nNTN is induced in CD1 mice by the method described above. Six weeks after NTN induction, THR-123 (p.o. 5 mg/Kg/day) are started until 9 weeks. Mice are sacrificed at week 1, week 3, week 6 and week 9.\nFor the analysis of glomerulosclerosis, 20 glomeruli per each mouse were randomly picked and each glomerulus was evaluated according to the following scale: no sclerosis 0, 0 to ¼ of a glomerular surface area was sclerosed 1, ¼ to ½ was sclerosed 2, ½ to ¾ was sclerosed 3 and more than ¾ was sclerosed or with crescent 4. A glomerulosclerosis score was calculated as an arithmetic mean of these numbers for each mouse. The glomerulosclerosis scores from all mice were arbitrarily divided into 4 groups; that is no disease, mild, moderate and severe. The percentage of mice with these 4 groups was calculated.\nFor tubular atrophy score, ten 200× visual fields were randomly selected for each slide and tubular atrophy was assessed according to the following scale: no atrophy 0, 0 to ¼ of a visual field was occupied by atrophied tubules 1, ¼ to ½ 2, ½ to ¾ 3 and more than ¾ 4. A tubular atrophy score was then calculated as an arithmetic mean of these numbers per each mouse. The tubular atrophy scores from all mice were arbitrarily divided into 4 groups; that is no disease, mild, moderate and severe. The percentage of mice with these 4 groups was calculated and shown on the graph.\nFor the analysis of interstitial fibrosis, ten 200× visual fields were also selected randomly for each Masson trichrome stained kidney section and interstitial fibrosis was evaluated according to the following scale: no fibrosis 0, 0 to ¼ of a visual field was affected by interstitial fibrosis 1, ¼ to ½ 2, ½ to ¾ 3 and more than ¾ 4. […]"}, "[2]": {"system": "human proximal tubule epithelial cells (HK2)", "experiment": "Cisplatin-induced apoptosis in HK-2 cells (Annexin V)", "type": "cell-based", "conditions": "THR-123 250 μM, cisplatin 10 μM", "procedure": "FIG. 50A-FIG. 50D THR-123 inhibits Cisplatin-induced apoptosis in human proximal tubule epithelial cells (HK2). Immortalized human proximal tubular epithelial-derived HK-2 (Human Kidney-2) cells are passaged on 24-well plates (˜25,000 to 30,000 cells/well). The cells are exposed either K-SFM media alone or K-SFM medium containing THR-123. BMP7 serves as a positive control of experiment. Two hours after incubation, cells are exposed to cisplatin for 60 hours (FIG. 50A-FIG. 50C). FIG. 50D. Cells are exposed to cisplatin for 6 hours and subsequently THR-123 was added into the media. Apoptosis is determined by staining of AnnexinV-FITC Apoptosis detection kit (TACS Annexin V-FITC) (R&D Systems), followed by fluorescence microscopy. Final concentration: THR-123 250 μM, BMP-7 1 μg/ml, cisplatin 10 μm.\nHK-2 cells are passaged on 24-well plates (25,000-30,000 cell/well). Once cells attached on the well, cells are exposed either K-SFM media alone or K-SFM medium containing THR-123. BMP7 serves as a positive control of experiment. Two hours after incubation, cells are exposed to cisplatin for 60 hours. Apoptosis is determined by staining of AnnexinV-FITC, followed by fluorescence microscopy. Final concentration: THR-123 250 μM, BMP7 1 μg/ml, cisplatin 10 μM."}},
  "note": "Positions of bridges follow the written chain, without caps; N, C: chain ends.",
  "data": [
    {"substance": "(H)-CYFDDSSNVLCKKYRS-(OH) (H-CYFDDSSNVLCKKYRS-OH; disulfide 1-11; SMILES CC(C)C[C@@H]1NC(=O)[C@H](C(C)C)NC(=O)[C@H](CC(N)=O)NC(=O)[C@H](CO)NC(=O)[C@H](CO)NC(=O)[C@H](CC(=O)O)NC(=O)[C@H](CC(=O)O)NC(=O)[C@H](Cc2ccccc2)NC(=O)[C@H](Cc2ccc(O)cc2)NC(=O)[C@@H](N)CSSC[C@@H](C(=O)N[C@@H](CCCCN)C(=O)N[C@@H](CCCCN)C(=O)N[C@@H](Cc2ccc(O)cc2)C(=O)N[C@@H](CCCNC(=N)N)C(=O)N[C@@H](CO)C(=O)O)NC1=O) [SEQ ID NO: 1]", "values": [
      {"measurement": "glomerular lesion (sclerosis), tubular atrophy and fibrosis", "setting": "[1]; THR-123 p.o. 5 mg/Kg/day from week 6 to 9", "result": "improved glomerular lesion (sclerosis) and tubular atrophy and fibrosis"},
      {"measurement": "Mac-1 positive macrophage accumulation", "setting": "[1]; week 6 to 9 treatment", "result": "inhibited accumulation of macrophage"},
      {"measurement": "blood urea nitrogen", "setting": "[1]; week 6 to 9 treatment", "result": "decreased"},
      {"measurement": "cells exhibiting an EMT program (FSP-1 and E-cadherin positive)", "setting": "[1]; week 6 to 9 treatment", "result": "significantly decreased the number of cells exhibiting an EMT program"},
      {"measurement": "expression of fibronectin and type I collagen", "setting": "[1]; week 6 to 9 treatment", "result": "decreased expression of matrix components such as fibronectin and type I collagen"},
      {"measurement": "phospho-smad1/5 accumulation", "setting": "[1]; week 6 to 9 treatment", "result": "increased accumulation of phospho-Smad1/5"},
      {"measurement": "cisplatin induced apoptosis", "setting": "[2]", "result": "inhibited"}
    ]}
  ]
}
